# According to PubChem BioAssay AID504641 (Sanford-Burnham Center for Chemical Genomics, 2011):
# Activity calls are given as the source filed them.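 The calls were made as follows: active = mean IC50 at or below a set limit; inactive = the rest.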
# Test system: 697 B-cell NF-kB luciferase reporter, PMA/ionomycin, 16 h
# Assay: NF-kB luciferase reporter inhibition in 697 B cells – cell-based, luminescence, set 3, SAR follow-up (AID 504641)
row,IC50,SMILES
1,190 nM,CCCNC(=O)CCc1nc(-c2ccc(C(C)(C)C)cc2)no1
2,< 160 nM,COc1cccc(NC(=O)CCc2nc(-c3ccc(C(C)(C)C)cc3)no2)c1
3,> 80000 nM (inactive),CNC(=O)CCc1nc(-c2ccc(OC)cc2)no1
4,240 nM,CC(C)CNC(=O)CCc1nc(-c2ccc(C(C)(C)C)cc2)no1
5,6750 nM,CCOc1ccc(-c2nc(CSCC(=O)NCc3ccccc3)c(C)o2)cc1
6,< 160 nM,CCOc1ccccc1NC(=O)CCc1nc(-c2ccc(C(C)(C)C)cc2)no1
7,> 80000 nM (inactive),CCOc1ccc(-c2nc(CSCC(=O)NC3CCCC(C)C3C)c(C)o2)cc1 (stereo not drawn)
8,200 nM,CC(C)(C)c1ccc(-c2noc(CCC(=O)NCc3ccco3)n2)cc1
9,3560 nM,CCOc1ccc(-c2nc(CSCC(=O)NCCc3ccccc3)c(C)o2)cc1
10,1510 nM,CCCNC(=O)CSCc1nc(-c2ccc(OCC)cc2)oc1C
11,8640 nM,CCCCNC(=O)CSCc1nc(-c2ccc(OCC)cc2)oc1C
12,400 nM,CC(C)(C)c1ccc(-c2noc(CCC(=O)NC3CCCCC3)n2)cc1
13,18100 nM,CCOc1ccc(-c2nc(CSCC(=O)NCCc3ccc(C)cc3)c(C)o2)cc1
14,590 nM,CC(C)(C)c1ccc(-c2noc(CCC(=O)NCC3CCCO3)n2)cc1 (stereo not drawn)
15,650 nM,CCOc1ccc(-c2nc(CSCC(=O)NCc3cccs3)c(C)o2)cc1
16,> 80000 nM (inactive),CNC(=O)CCc1nc(-c2ccc(Cl)cc2)no1
17,25700 nM (inactive),CCOc1ccc(-c2nc(CSCC(=O)NC3CCCC3)c(C)o2)cc1
18,< 160 nM,CC(C)(C)c1ccc(-c2noc(CCC(=O)Nc3ccccc3)n2)cc1
19,190 nM,C=CCNC(=O)CCc1nc(-c2ccc(C(C)(C)C)cc2)no1
20,> 80000 nM (inactive),CCOc1ccc(-c2nc(CSCC(=O)N3CCCC3)c(C)o2)cc1
21,10300 nM,CCOCCCNC(=O)CSCc1nc(-c2ccc(OCC)cc2)oc1C
22,280 nM,CC(C)NC(=O)CCc1nc(-c2ccc(C(C)(C)C)cc2)no1

row,IC50,SMILES
1,> 80000 nM (inactive),CNC(=O)CCc1nc(-c2ccc(C)cc2)no1
2,> 80000 nM (inactive),CCOc1ccc(-c2nc(CSCC(=O)NCCc3ccc(Cl)cc3)c(C)o2)cc1
3,> 80000 nM (inactive),CCCNC(=O)CSCc1nc(-c2ccc(SC)cc2)oc1C
4,70400 nM (inactive),CCOc1ccc(-c2nc(CSCC(=O)N3CCC(C)CC3)c(C)o2)cc1
5,2380 nM,CCOc1ccc(-c2nc(CSCC(=O)NCc3cccnc3)c(C)o2)cc1
6,36500 nM (inactive),CCOc1ccc(-c2nc(CSCC(=O)NCCC3=CCCCC3)c(C)o2)cc1
7,30300 nM (inactive),CC(C)(C)c1ccc(-c2noc(CCC(=O)N3CCCCC3)n2)cc1
8,1360 nM,CSc1ccc(-c2nc(CSCC(=O)NC3CC3)c(C)o2)cc1
9,24300 nM (inactive),CC(C)(C)c1ccc(-c2noc(CCC(=O)N3CCOCC3)n2)cc1
10,7840 nM,CCOc1ccc(-c2nc(CSCC(=O)NCC3CCCO3)c(C)o2)cc1 (stereo not drawn)
11,< 160 nM,COc1ccccc1NC(=O)CCc1nc(-c2ccc(C(C)(C)C)cc2)no1
12,46900 nM (inactive),CCOc1ccc(-c2nc(CSCC(=O)NC(C)CC)c(C)o2)cc1 (stereo not drawn)
13,160 nM,CC(C)(C)c1ccc(-c2noc(CCC(=O)Nc3cccnc3)n2)cc1
14,360 nM,CC(C)(C)c1ccc(-c2noc(CCC(=O)NC3CCCC3)n2)cc1
15,310 nM,CCOc1ccc(-c2nc(CSCC(=O)NCCOC)c(C)o2)cc1
16,< 160 nM,CC(C)(C)c1ccc(-c2noc(CCC(=O)Nc3cccc([N+](=O)[O-])c3)n2)cc1
17,1240 nM,CCOc1ccc(-c2nc(CSCC(=O)NC(C)C)c(C)o2)cc1
18,2770 nM,CCOc1ccc(-c2nc(CSCC(=O)NCc3ccc(C)cc3)c(C)o2)cc1
19,> 80000 nM (inactive),CNC(=O)CCc1nc(-c2ccc(F)cc2)no1
20,12100 nM,CCOc1ccc(-c2nc(CSCC(=O)NCCN3CCCC3)c(C)o2)cc1
21,> 80000 nM (inactive),CCOc1ccc(-c2noc(CCC(=O)NC)n2)cc1
